# Test results from patent US20210147932A1, “FLUORESCENT PROBES FOR QUANTIFICATION OF DNA DAMAGE AND REPAIR” (The Board of Trustees of the Leland Stanford Junior …, priority 2019, published 2021).
# “Also recorded” adds a separate entry of the source.
# Columns and labels:
# [1] = system: DNA AP site (AP site containing DNA, oligo 15); experiment: Fluorescence response of probe covalently attached to the AP site of a DNA hairpin; format: biochemical
# Protocol: FIG. 2B provides emission spectra of oligonucleotide-probe conjugates compared to the emission spectra of the free probe at 2 μM concentration in 50 mM Tris buffer pH 7.0. Excitation was at 470 nm for Compound (1) (also referred to herein as CCVJ1) and 450 nm for Compounds 8 and 9 (also referred to herein as NP1 and NP2) and Compounds 4 and 6 (also referred to herein as BD1 and BD2).
# To assess the potential fluorescence response of each probe, a 17mer DNA hairpin containing a single AP site was prepared and reacted it with a 10-fold excess of probe overnight. The subsequent DNA-probe conjugates were precipitated to remove excess fluorophore and full DNA labelling was confirmed by MALDI-TOF mass spectrometry (Table 1). The reacted DNAs were re-suspended in buffer to a concentration of 2 μM and the emission spectra compared with the spectra of the free probes in solution. […] In addition to its large fluorescence response, CCVJ1 is accessed readily through a facile 4-step synthesis and has good spectral overlap with fluorescein. This makes the probe accessible to a wide range of researchers and well suited to the majority of fluorescence-based instruments.
# In addition to the 5′ and 3′ neighboring bases, studies were done of the effect of the orphaned base Z paired opposite the abasic site on the UBER probe system (FIG. 10, panels C-D). Using the sequence where X=C and Y=G, the identity was varied of the base Z opposite the AP site. […] As a result, the smaller pyrimidine bases yielded a greater fluorescence light up response than the larger purine bases. It was also observed a strong effect by the opposing base on the rate of oxime formation (FIG. 10, panel D). […] This trend is in contrast to the neighboring base effect discussed above in which stronger stacking bases accelerated the rate of oxime formation.
# General procedure for creating AP site DNA: A deoxyuridine containing oligonucleotide (typically 5-20 μM) was treated with 10 U/mL E. coli UDG (New England Biolabs) for 10 minutes at 37° C. in buffer to create AP site containing DNA (see below for MALDI-TOF confirmation). The hairpin was then reacted with probe from a DMSO stock solution (final DMSO concentration <5%).
# Procedure for assessing fluorescence response of probes: To assess the fluorescence response of the probes, 25 μM AP site containing DNA (oligo 15) was prepared in a 20 μL solution and allowed to react with 500 μM of each probe overnight. The DNA was then precipitated by the addition of 80 μL 0.33 M sodium acetate and 300 μL ethanol and centrifuged at 21,100 g for 1 hr at 4° C. The resulting DNA pellet was washed twice with 70% EtOH and re-suspended in buffer to a concentration of 2 μM. A portion of the DNA pellet was used for MALDI-TOF analysis. The emission spectra of the probe-oligonucleotide conjugate was measured and compared against a 2 μM solution of the free probe
# [2] = system: AP site-containing DNA; experiment: Competition for oxime formation between CCVJ1 and AP site-containing DNA; format: biochemical
# Protocol: FIG. 6 provides effect of adding exemplary linker NH2CH2CH2ONH2 to the reaction of Compound (1) (CCVJ1) (5 μM) with AP site containing DNA (20 μM) in buffer.
# FIG. 9 provides interaction between Compound (1) (CCVJ1) and DNA. […] (Ex. 485, Em. 538).
# FIG. 14 provides effect of competing aldehydes/ketones on maximum fluorescence signal.
# Additional experiments were performed to study the origins of this unusually rapid reaction. […] To test the effect that proximity between the alkoxyamine and planar portion of the probe had on oxime kinetics in our probes, probes were synthesized having variable-length linkers (CCVJ2 and CCVJ3) from aldehyde reactive linkers L2 and L3 respectively (FIG. 2A). […] To test the importance of a double-stranded DNA structure to the rate and fluorescence response, an AP-containing single-stranded DNA oligonucleotide was reacted with CCVJ1. At pH 7, CCVJ1 reacted with a second-order rate constant of 33 M^−1s^−1 with the single-stranded substrate, roughly 5-fold slower than a double-stranded hairpin with identical sequence context (FIG. 8).
# To further explore the hypothesis that the oxime rate acceleration in these AP-site DNAs was related to base stacking interactions, the fluorescence was measured of CCVJ1 in the presence and absence of a non-lesion containing DNA hairpin.
# (§1) Since the probe design involves conformational restriction to induce a light-up signal, it was hypothesized that off-target oxime formation with small molecules might induce a relatively small signal relative to DNA, thus providing a measure of selectivity in signaling. […] Another potential aspect is that ketones or aldehydes in the environment might compete with the DNA AP site to react with the aminooxy group, thereby consuming the free probe and reducing the maximum signal. Initial testing of the reactivity of CCVJ1 with AP site-containing DNA in the presence of increasing amounts of competing 2-deoxyribose, the closest small-molecule analogue to the DNA AP site. […] This was repeated this experiment with pyruvic acid, a highly reactive ketone and a common cellular metabolite.
# [3] = Off-target light-up with small-molecule carbonyl species; conditions: 5 μM CCVJ1, 500 μM carbonyl species, 37° C.
# Protocol: FIG. 13 provides fluorescence response of 5 μM Compound (1) (CCVJ1) with 500 μM of various biologically relevant carbonyl species after 1 h incubation in buffer at 37° C. […] (Ex. 485, Em. 538)
# as §1
smiles,measurement,setting,value
N#C/C(=C\c1cc2c3c(c1)CCCN3CCC2)C(=O)NCCON [CCVJ1],increase in fluorescence when bound to the AP site vs free probe,[1]; 17mer hairpin conjugate 2 μM vs free probe,256 fold
same,"overall increase in fluorescence relative to the probe alone, optimal neighboring bases","[1]; AP hairpin X=C, Y=G, Z=C",508 fold
same,fluorescence light up response (summary),[1]; relative to the unbound probe,250-500 fold
same,effect of equimolar pseudo AP DNA on rate of apparent oxime formation,"[2]; 20 μM pseudo AP hairpin, 20 μM AP DNA, 5 μM CCVJ1",no effect on the rate of apparent oxime formation
same,effect of competing 2-deoxyribose on maximum signal,[2]; 1 mM deoxyribose (200 equivalents),no effect on the maximum signal
same,signal retained compared to the AP DNA alone,[2]; 4 mM deoxyribose (800 equivalents),85%
same,effect of competing pyruvate on overall signal,[2]; up to 200 μM pyruvate (40 equivalents),no significant reduction in overall signal
same,light-up response with small-molecule ketones and aldehydes,[3],absence of any fluorescence response; also recorded: none of them generated a significant light-up response
